Results on ten molecules are retold here after patent US6787356B1, “Cell expansion system for use in neural transplantation” (The United States of America as represented by the …, priority 1998, dated 2004).

Experiment [1] relates to E12 mesencephalic precursors. Put plainly: Dopaminergic differentiation of long-term expanded mesencephalic precursors, TH-ir cell count per well. The experiment is classed as cell-based, rat. Particulars: for effect of antioxidants on dopaminergic cell number: FIG. 5, FIG. 6. The method, then:
Ascorbic acid was obtained from SIGMA (A-1417: Lot 105H0138) and used at various concentrations ranging from 1 nM-1 mM to obtain a dose-response curve. The effect of ascorbic acid on dopaminergic differentiation of long-term expanded mesencephalic precursors was tested during early and late proliferation as well as during cell differentiation.
Briefly, E12 mesencephalic precursors were proliferated for 12-14 days in vitro with 20 ng/ml bFGF (average expansion factor 40-200 fold) followed by 4-7 days of differentiation upon bFGF withdrawal and exposure to the various differentiation agents refers to the experimental assay in general. We tested the effects of many possible differentiation agents such as NGF, BDNF, NT3, NT4/5, GDNF, SHH, FGF8, interleukin1, Neurturin, cGMP and many others.
Cells were treated with 100 uM ascorbic acid. Ascorbic acid was dissolved in PBS with 0.1% bovine serum albumin at 100 mM stock solution. It was then used in 1:1000 dilution by adding it directly into the culture medium Cells were then fixed in 0.15% picric acid/4% paraformaldehyde and stained for tyrosine-hydroxylase (PelFreeze P40101-0). The number of TH-ir cells per well were scored using a stereological counting frame.
A dose response curve of the effect of stereoisomer D-iso-ascorbic acid was established using D-iso Ascorbic acid (I-0502 SIGMA). D-iso-ascorbic acid was used with the same protocol as L-ascorbic acid regarding stock solution, concentrations and mode of application. D-iso ascorbic acid has the same anti-oxydative properties but different other biological properties than ascorbic acid.

Experiment [2] relates to expanded and differentiated mesencephalic precursors. Put plainly: KCl evoked dopamine release of differentiated expanded precursors, HPLC. The experiment is classed as cell-based, rat. The procedure:
Tissue culture was prepared as described in Example 1. The growth medium of expanded precursors from 3 independent culture series was collected after 5-7 days of differentiation under serum-free conditions and immediately stabilized by adding 88 μl of 85% orthophosphoric acid and 4.4 mg of metabisulfite to each sample ml. Additional cultures of the same series were placed in 5 ml Hank's basic salt solution (HBSS) for […] at 37° C. either under basal conditions (HBSS only) or under stimulation with 56 mM KCl. 56 mM KCl was added to assay evoked release, i.e., dopamine release in response to depolarization by KCl (depolarization by KCl leads to release of synaptic vesicles in neurons). This provides a more specific test than release in HBSS where synaptic release is not directly tested.
Dopamine staining was carried out on cultures using dopamine polyclonal 1:500 (Chemicon). The cultures were fixed in 5% glutaraldehyde and 1% metabisulfite in Tris buffer and then kept in metabisulfite containing solutions prior to incubation in the secondary antibody. Dopamine was extracted by aluminum adsorption as described by Studer et al. (1996) Brain Res.Bull. 41, 143-150. […] No dopamine was detected in unconditioned control medium and HBSS.

Experiment [3] concerns differentiated mesencephalic precursor culture. Put plainly: Oxidative stress assays (lipid peroxydation, H2O2, oxidative stress marker staining). The experiment is classed as cell-based, rat. Particulars: data not shown. The method, then:
Lipid peroxydation is a colorimetric assay (OXIS BIOXYTECH® LPO-568™; Oxis International Inc.) and was used according to the specifications of the manufacturer. H2O2 assay measures the conversion of 2′,7′ dicholorofluorescin diacetate (Molecular Probes d-399) into 2′,7′ dicholorofluorescin catalyzed by H2O2. The assay was performed according to the specifications of the manufacturer. Immunohistochemistry for oxidative stress markers by the DAB-peroxidase technique was performed on cells differentiated in the presence or absence of ascorbic acid, glutathione or […] plus ebselin.

Experiment [4] has as its system bFGF expanded precursor derived TH+ neurons. Kind of experiment: Dopamine release of precursor derived TH+ neurons, reverse phase HPLC with electrochemical detection. In kind it is cell-based, rat. Particulars: conditioned medium, buffer solution, buffer + 56 mM KCl; FIG. 7 and 8. The procedure: To test the biochemical function of precursor derived tyrosine hydroxylase expressing (TH+) neurons, the supernatant was tested for dopamine release using reverse phase HPLC with electrochemical detection. Dopamine levels were assessed in conditioned medium (24 hours of incubation), HBSS buffer (15 minutes), HBSS buffer +56 mM KCl. Dopamine was subsequently extracted by aluminum absorption and measured by reverse phase HPLC with electrochemical detection.

Experiment [5] has as its system mesencephalic precursors expanded with bFGF for 11 days. Particulars: dopamine 1 nM-1 mM; cAMP 1 mM; DMEM/F12/N2.
The subject of experiment [6] is expanded mesencephalic precursors differentiated as free floating reaggregates. Kind of experiment: Reaggregation system (roller drum) differentiation, immunohistochemistry of reaggregates. Particulars: for total number of TH-ir cells/sphere in serum-supplemented medium: GDNF, BDNF, NT4/5 10 ng/ml, SHH 2.5 μg/ml, data not shown. The experiment is classed as cell-based, rat. The procedure: Cells were cultured as described in Example 1 and differentiated as free floating aggregates in a medium containing 10% fetal bovine serum (FBS) and maintained in a roller drum system. The cell suspension (200,000 cells/ml) was distributed in 15 ml Falcon tubes (1 ml/tube) and placed in a roller drum (Bellco) and rotated at a speed of 1-4 revolutions per minute and a temperature of 37° C. in a dry incubator (no additional humidity) in an atmosphere containing 5% CO2.
Medium in all these experiments described in this section was Neurobasal/B27 as described above. We tested the effect of GDNF, BDNF, SHH in the presence and in the absence of 10% fetal bovine serum (always with Neurobasal/B27 medium as a “basal medium”)
After 7 days, the test tubes were removed from the roller drum and the reaggregation of the cells was examined immunohistochemistry after sectioning the cells (see below). […] Reaggregates were fixed in 4% paraformalehyde/0.15 picric acid in PBS for 30-60 minutes at room temperature, equilibrated in 30% sucrose, cut into 20 um thick sections on a freezing microtome and adhered to a gelatine precoated glass carrier according to standard histological guidelines.
The differentiation medium for reaggregate cultures consisted of Neurobasal®/2% B27® (Gibco, Life Technologies) with or without fetal bovine serum (FBS; 10%, Gibco), glial derived neurotrophic factor (GDNF; 10 ng/ml; Peprotech), brain derived neurotrophic factor (BDNF; 10 ng/ml; Peprotech), neurotrophin 4/5 (NT4/5; 10 ng/ml; Peprotech), SHH (2.5 μg/ml; kindly provided by Dr. Thomas Muller, at the Labrotory of Molecular Biology, currently at the Max Delbrueck Univ. in Berlin; SHH is now commercially avail. fro R&D).
Using standard immunohistochemical procedures known to those of skill in the art, the following antibodies were used to examine the neuronal phenotypes present in differentiated aggregates: GABA polyclonal 1:2000 (SIGMA), serotonin polyclonal 1:8000 (SIGMA), ChAT polyclonal 1:500 (Chemicon), GFAP polyclonal 1:100 (Chemicon), GalC monoclonal 1:50 (Boehringer-Mannheim),
Total graft volume was estimated using the Cavalieri's estimator as described by Gundersen et al. (1988) APIMS 96, 379-394. TH-ir cells were counted within the outlined graft area as used for volume estimation. Uniform randomly chosen sections of individual reaggregates were analyzed for the total number of TH-ir cells by means of a stereological grid (fractionator). Conventional and confocal images were obtained with Axiophot and Axiovert microscopes respectively (Zeiss). Confocal image stacks were acquired by single and dual wavelength excitation at 488 and 568 nm. […] The effect of serum and growth factors was analyzed using ANOVA and Dunnett posthoc comparisons. […]

Take `CC(=O)N[C@H](CS)C(=O)O` [D-acetylcystein]: the “effect of antioxidants on dopaminergic cell number” value (“effect of antioxidants” for short) in experiment [1] was “none of the antioxidants tested influenced dopaminergic cell number”.

Turning to `O=C1O[C@H]([C@H](O)CO)C(O)=C1O` [D-iso ascorbic acid, D-iso-ascorbic acid], the “number of dopaminergic neurons, lower than in the ascorbic acid group” value in experiment [1] (optimum concentration of 100 μM) was 48%.

As to `[Cl-].[K+]` [KCl], the “increase in dopamine levels in the supernatant” value in experiment [2] (56 mM KCl in HBSS for 25 minutes vs HBSS only) is given as 3-4 fold. Besides, the “dopamine level in the supernatant, evoked release” value in experiment [2] (56 mM KCl in HBSS for 25 minutes, N=3) is reported as 572+/−145 pg dopamine/ml.

In the case of `O=C1O[C@H]([C@@H](O)CO)C(O)=C1O` [ascorbic acid], the “yield of dopaminergic neurons compared with other differentiation agents tested” value in experiment [1] (100 uM, 12-14 days expansion, 4-7 days differentiation) was “most effective agent of all agents tested”. Also, in experiment [1] (FIG. 6), the “effect on dopaminergic yield, treatment during cell differentiation (P1 diff.)” value is “acts mostly during the differentiation phase”; the “effect on dopaminergic yield, treatment during early expansion (Po exp.)” value is given as “small improvement in dopaminergic yield”; the “effect on dopaminergic yield, treatment during late expansion (P1 exp.)” value is given as “slightly negative effect”. The “concentration of maximal effect on TH-ir cell number (dose-response)” value in experiment [1] (during cell differentiation, range 1 nM-1 mM, FIG. 5) came out at 100 µM. In addition, in experiment [3], the “differences to control in lipid peroxydation, H2O2 levels and staining intensity for oxydative stress markers” value was “No significant differences”. For the same molecule, in experiment [4], the “dopamine levels after treatment, long-term expanded precursors (P1)” value was “significant increase” and the “dopamine levels after treatment, short term expanded precursors (Po)” value was “significant increase”.

In the case of `NCCc1ccc(O)c(O)c1` [dopamine], the “additional effect on yield of dopaminergic neurons in combination with ascorbic acid (100 uM)” value in experiment [5] is “no significant additional effect”.

Consider `O=c1c2ccccc2[se]n1-c1ccccc1` [ebselin], for which, in experiment [1], the “effect of antioxidants” value is given as “none of the antioxidants tested influenced dopaminergic cell number”.

As for `N[C@@H](CCC(=O)N[C@@H](CS)C(=O)NCC(=O)O)C(=O)O` [glutathione], the “effect of antioxidants” value in experiment [1] is “none of the antioxidants tested influenced dopaminergic cell number”.

B1: NT4/5: neurotrophin 4/5, Peprotech (protein, UniProt P34130 81-210, looked up)
Neurotrophin-4: GVSETAPASRRGELAVCDAVSGWVTDRRTAVDLRGREVEVLGEVPAAGGSPLRQYFFETRCKADNAEEGGPGAGGGGCRGVDRRHWVSECKAKQSYVRALTADAQGRVGWRWIRIDTACVCTLLSRTGRA
Turning to B1, the “total number of TH-ir cells/sphere in serum-supplemented medium” value (shortened to “total number of TH-ir cells/sphere”) in experiment [6] is reported as “did not cause a significant increase”.

B2: BDNF: brain derived neurotrophic factor, Peprotech (protein, UniProt P23560 19-247, looked up)
Neurotrophic factor BDNF …: APMKEANIRGQGGLAYPGVRTHGTLESVNGPKAGSRGLTSLADTFEHVIEELLDEDQKVRPNEENNKDADLYTSRVMLSSQVPLEPPLLFLLEEYKNYLDAANMSMRVRRHSDPARRGELSVCDSISEWVTAADKKTAVDMSGGTVTVLEKVPVSKGQLKQYFYETKCNPMGYTKEGCRGIDKRHWNSQCRTTQSYVRALTMDSKKRIGWRFIRIDTSCVCTLTIKRGR
As for B2, the “total number of TH-ir cells/sphere” value in experiment [6] is “did not cause a significant increase”.

B3: GDNF: glial derived neurotrophic factor, Peprotech (protein, UniProt P39905 78-211, looked up)
Glial cell line-derived …: SPDKQMAVLPRRERNRQAAAANPENSRGKGRRGQRGKNRGCVLTAIHLNVTDLGLGYETKEELIFRYCSGSCDAAETTYDKILKNLSRNRRLVSDKVGQACCRPIAFDDDLSFLDDNLVYHILRKHSAKRCGCI
B3: in experiment [6] (GDNF 10 ng/ml, N=8, p<0.05 vs control), the “TH-ir cell yield under serum-free conditions” value is on record as 3451+/−621. Further, the “total number of TH-ir cells/sphere” value in experiment [6] is on record as “did not cause a significant increase”.
